Test: Multiple dose study in cancer subjects: treatment-emergent (serious) adverse events
Method: 46 subjects with cancer receiving platinum-based therapies were enrolled into 3 cohorts (N=16 in Cohort 1, 14 in Cohort 2, and 16 in Cohort 3). The subjects received the TPO mimetic peptide compound or placebo within 2 hours prior to the platinum-based chemotherapy on Day 1 of the first 2 cycles with a 21-day interval between each cycle. In addition to the Day 1 administration, gemcitabine administration was permitted on Day 8 of each cycle. Other chemotherapy medications were limited to dosing on Day 1 of each cycle only. Subjects were followed up for a total of 4 cycles of chemotherapy. Chemotherapy regimen continued beyond the first 4 cycles as per standard of care therapy. In the first cohort, 12 subjects received 1.5 μg/kg the TPO mimetic peptide compound and 4 subjects received placebo. In the second cohort 10 subjects received 3.0 μg/kg the TPO mimetic peptide compound and 4 subjects received placebo. In the third cohort, 12 subjects received 2.25 μg/kg the TPO mimetic peptide compound and 4 subjects received placebo. […] Therefore, a third cohort at a lower dose (2.25 μg/kg) was added to collect additional safety, tolerability, PD, and PK data.

## Methoxypolyethyleneglycol20000-propionyl-L-Isoleucyl-L-Glutamyl-Glycyl-L-Prolyl-L-Threonyl-L-Leucyl-L-Arginyl-L-Glutaminyl-L-2-Naphthylalanyl-L-Leucyl-L-Alanyl-L-Alanyl-L-Arginyl-Sarcosyl-Ne-(methoxypolyethyleneglycol20000-propionyl-L-Isoleucyl-L-Glutamyl-Glycyl-L-Prolyl-L-Threonyl-L-Leucyl-L-Arginyl-L-Glutaminyl-L-2-Naphthylalanyl-L-Leucyl-L-Alanyl-L-Alanyl-L-Arginyl-Sarcosyl-)-Lysinamide [TPO mimetic peptide compound]
1.5 ug/kg, n of N = 12
  Adverse event: Abdominal pain: 2
  Adverse event: Acute myocardial infarction: 1
  Adverse event: Alanine aminotransferase increased: 0
  Adverse event: Alopecia: 2
  Adverse event: Anemia: 7
  Adverse event: Anorexia: 5
  Adverse event: Anxiety: 1
  Adverse event: Arthralgia: 0
  Adverse event: Aspartate aminotransferase increased: 0
  Adverse event: Atrial fibrillation: 1
  Adverse event: Azotaemia: 0
  Adverse event: Blood and lymphatic system disorders: 8
  Adverse event: Blood creatinine increased: 1
  Adverse event: C-reactive protein increased: 0
  Adverse event: Cancer pain: 1
  Adverse event: Cardiac disorders: 3
  Adverse event: Cardiac failure: 1
  Adverse event: Chills: 0
  Adverse event: Confusional state: 0
  Adverse event: Constipation: 3
  Adverse event: Cough: 0
  Adverse event: Dehydration: 0
  Adverse event: Dermatitis acneiform: 0
  Adverse event: Diabetes mellitus non-insulin-dependent: 1
  Adverse event: Diarrhea: 2
  Adverse event: Dizziness: 0
  Adverse event: Dry skin: 0
  Adverse event: Dyspepsia: 0
  Adverse event: Dyspnoea: 1
  Adverse event: Ear and labyrinth disorders: 0
  Adverse event: Epistaxis: 0
  Adverse event: Eructation: 0
  Adverse event: Fatigue: 5
  Adverse event: Febrile neutropenia: 0
  Adverse event: Folliculitis: 1
  Adverse event: Gastrointestinal disorders: 7
  Adverse event: General disorders and administration site conditions: 7
  Adverse event: General physical health deterioration: 0
  Adverse event: Haematocrit decreased: 0
  Adverse event: Headache: 1
  Adverse event: Hemorrhoids: 1
  Adverse event: Hepatobiliary disorders: 0
  Adverse event: Hiccups: 1
  Adverse event: Hyperbilirubinaemia: 0
  Adverse event: Hypersensitivity: 0
  Adverse event: Hypertension: 0
  Adverse event: Hypoalbuminaemia: 0
  Adverse event: Hypocalcaemia: 1
  Adverse event: Hypokalaemia: 0
  Adverse event: Hypomagnesaemia: 0
  Adverse event: Hyponatraemia: 0
  Adverse event: Hypophosphataemia: 1
  Adverse event: Immune system disorders: 0
  Adverse event: Insomnia: 0
  Adverse event: Investigations: 3
  Adverse event: Leukocytosis: 0
  Adverse event: Leukopenia: 2
  Adverse event: Lung abscess: 1
  Adverse event: Lymphopenia: 2
  Adverse event: Metabolism and nutrition disorders: 5
  Adverse event: Mucosal inflammation: 0
  Adverse event: Musculoskeletal and connective tissue disorders: 0
  Adverse event: Nausea: 6
  Adverse event: Neoplasms benign, malignant and unspecified (incl cysts and polyps): 1
  Adverse event: Nervous system disorders: 3
  Adverse event: Neuropathy peripheral: 1
  Adverse event: Neutropenia: 3
  Adverse event: Oedema: 0
  Adverse event: Oedema peripheral: 1
  Adverse event: Pain: 3
  Adverse event: Pain in extremity: 0
  Adverse event: Paraesthesia: 0
  Adverse event: Peripheral motor neuropathy: 1
  Adverse event: Peripheral sensory neuropathy: 0
  Adverse event: Platelet count decreased: 1
  Adverse event: Psychiatric disorders: 1
  Adverse event: Pyrexia: 1
  Adverse event: Rash: 2
  Adverse event: Renal and urinary disorders: 0
  Adverse event: Respiratory failure: 1
  Adverse event: Respiratory, thoracic and mediastinal disorders: 2
  Adverse event: Skin and subcutaneous tissue disorders: 4
  Adverse event: Stomatitis: 2
  Adverse event: Tachycardia: 2
  Adverse event: Thrombocythaemia: 1
  Adverse event: Thrombocytopenia: 3
  Adverse event: Tinnitus: 0
  Adverse event: Vascular disorders: 0
  Adverse event: Vomiting: 2
  Adverse event: Weight decreased: 1
  Serious adverse event: Abdominal pain: 1
  Serious adverse event: Acute myocardial infarction: 1
  Serious adverse event: Anorexia: 1
  Serious adverse event: Atrial fibrillation: 1
  Serious adverse event: Blood and lymphatic system disorders: 2
  Serious adverse event: Blood creatinine increased: 0
  Serious adverse event: Cardiac disorders: 2
  Serious adverse event: Cardiac failure: 1
  Serious adverse event: Dehydration: 0
  Serious adverse event: Dyspnoea: 0
  Serious adverse event: Fatigue: 1
  Serious adverse event: Febrile neutropenia: 0
  Serious adverse event: Gastrointestinal disorders: 2
  Serious adverse event: General disorders and administration site conditions: 2
  Serious adverse event: Hyponatraemia: 0
  Serious adverse event: Investigations: 0
  Serious adverse event: Lung abscess: 1
  Serious adverse event: Metabolism and nutrition disorders: 1
  Serious adverse event: Nausea: 1
  Serious adverse event: Neutropenia: 1
  Serious adverse event: Pain: 1
  Serious adverse event: Pyrexia: 1
  Serious adverse event: Respiratory failure: 1
  Serious adverse event: Respiratory, thoracic and mediastinal disorders: 1
  Serious adverse event: Thrombocythaemia: 1
  Serious adverse event: Thrombocytopenia: 0
  Serious adverse event: Vomiting: 0
  Total no. subjects WITH ADVERSE EVENTS: 12
  Total no. subjects WITH SERIOUS ADVERSE EVENTS: 5
2.25 ug/kg, n of N = 12
  Adverse event: Abdominal pain: 1
  Adverse event: Acute myocardial infarction: 0
  Adverse event: Alanine aminotransferase increased: 0
  Adverse event: Alopecia: 3
  Adverse event: Anemia: 2
  Adverse event: Anorexia: 0
  Adverse event: Anxiety: 0
  Adverse event: Arthralgia: 0
  Adverse event: Aspartate aminotransferase increased: 0
  Adverse event: Atrial fibrillation: 0
  Adverse event: Azotaemia: 1
  Adverse event: Blood and lymphatic system disorders: 6
  Adverse event: Blood creatinine increased: 1
  Adverse event: C-reactive protein increased: 0
  Adverse event: Cancer pain: 0
  Adverse event: Cardiac disorders: 0
  Adverse event: Cardiac failure: 0
  Adverse event: Chills: 1
  Adverse event: Confusional state: 1
  Adverse event: Constipation: 2
  Adverse event: Cough: 2
  Adverse event: Dehydration: 1
  Adverse event: Dermatitis acneiform: 0
  Adverse event: Diabetes mellitus non-insulin-dependent: 0
  Adverse event: Diarrhea: 1
  Adverse event: Dizziness: 2
  Adverse event: Dry skin: 0
  Adverse event: Dyspepsia: 0
  Adverse event: Dyspnoea: 1
  Adverse event: Ear and labyrinth disorders: 0
  Adverse event: Epistaxis: 0
  Adverse event: Eructation: 1
  Adverse event: Fatigue: 1
  Adverse event: Febrile neutropenia: 1
  Adverse event: Folliculitis: 0
  Adverse event: Gastrointestinal disorders: 7
  Adverse event: General disorders and administration site conditions: 3
  Adverse event: General physical health deterioration: 1
  Adverse event: Haematocrit decreased: 1
  Adverse event: Headache: 1
  Adverse event: Hemorrhoids: 0
  Adverse event: Hepatobiliary disorders: 1
  Adverse event: Hiccups: 1
  Adverse event: Hyperbilirubinaemia: 1
  Adverse event: Hypersensitivity: 0
  Adverse event: Hypertension: 2
  Adverse event: Hypoalbuminaemia: 1
  Adverse event: Hypocalcaemia: 0
  Adverse event: Hypokalaemia: 1
  Adverse event: Hypomagnesaemia: 1
  Adverse event: Hyponatraemia: 2
  Adverse event: Hypophosphataemia: 0
  Adverse event: Immune system disorders: 0
  Adverse event: Insomnia: 1
  Adverse event: Investigations: 2
  Adverse event: Leukocytosis: 0
  Adverse event: Leukopenia: 3
  Adverse event: Lung abscess: 0
  Adverse event: Lymphopenia: 0
  Adverse event: Metabolism and nutrition disorders: 2
  Adverse event: Mucosal inflammation: 0
  Adverse event: Musculoskeletal and connective tissue disorders: 1
  Adverse event: Nausea: 2
  Adverse event: Neoplasms benign, malignant and unspecified (incl cysts and polyps): 0
  Adverse event: Nervous system disorders: 3
  Adverse event: Neuropathy peripheral: 0
  Adverse event: Neutropenia: 4
  Adverse event: Oedema: 1
  Adverse event: Oedema peripheral: 0
  Adverse event: Pain: 0
  Adverse event: Pain in extremity: 1
  Adverse event: Paraesthesia: 0
  Adverse event: Peripheral motor neuropathy: 0
  Adverse event: Peripheral sensory neuropathy: 0
  Adverse event: Platelet count decreased: 0
  Adverse event: Psychiatric disorders: 2
  Adverse event: Pyrexia: 3
  Adverse event: Rash: 0
  Adverse event: Renal and urinary disorders: 1
  Adverse event: Respiratory failure: 0
  Adverse event: Respiratory, thoracic and mediastinal disorders: 3
  Adverse event: Skin and subcutaneous tissue disorders: 3
  Adverse event: Stomatitis: 0
  Adverse event: Tachycardia: 0
  Adverse event: Thrombocythaemia: 0
  Adverse event: Thrombocytopenia: 0
  Adverse event: Tinnitus: 0
  Adverse event: Vascular disorders: 2
  Adverse event: Vomiting: 6
  Adverse event: Weight decreased: 0
  Serious adverse event: Abdominal pain: 0
  Serious adverse event: Acute myocardial infarction: 0
  Serious adverse event: Anorexia: 0
  Serious adverse event: Atrial fibrillation: 0
  Serious adverse event: Blood and lymphatic system disorders: 1
  Serious adverse event: Blood creatinine increased: 1
  Serious adverse event: Cardiac disorders: 0
  Serious adverse event: Cardiac failure: 0
  Serious adverse event: Dehydration: 1
  Serious adverse event: Dyspnoea: 1
  Serious adverse event: Fatigue: 0
  Serious adverse event: Febrile neutropenia: 1
  Serious adverse event: Gastrointestinal disorders: 1
  Serious adverse event: General disorders and administration site conditions: 0
  Serious adverse event: Hyponatraemia: 2
  Serious adverse event: Investigations: 1
  Serious adverse event: Lung abscess: 0
  Serious adverse event: Metabolism and nutrition disorders: 2
  Serious adverse event: Nausea: 0
  Serious adverse event: Neutropenia: 0
  Serious adverse event: Pain: 0
  Serious adverse event: Pyrexia: 0
  Serious adverse event: Respiratory failure: 0
  Serious adverse event: Respiratory, thoracic and mediastinal disorders: 1
  Serious adverse event: Thrombocythaemia: 0
  Serious adverse event: Thrombocytopenia: 0
  Serious adverse event: Vomiting: 1
  Total no. subjects WITH ADVERSE EVENTS: 10
  Total no. subjects WITH SERIOUS ADVERSE EVENTS: 3
3.0 ug/kg, n of N = 10
  Adverse event: Abdominal pain: 2
  Adverse event: Acute myocardial infarction: 0
  Adverse event: Alanine aminotransferase increased: 1
  Adverse event: Alopecia: 2
  Adverse event: Anemia: 1
  Adverse event: Anorexia: 2
  Adverse event: Anxiety: 0
  Adverse event: Arthralgia: 1
  Adverse event: Aspartate aminotransferase increased: 1
  Adverse event: Atrial fibrillation: 0
  Adverse event: Azotaemia: 0
  Adverse event: Blood and lymphatic system disorders: 3
  Adverse event: Blood creatinine increased: 1
  Adverse event: C-reactive protein increased: 1
  Adverse event: Cancer pain: 0
  Adverse event: Cardiac disorders: 0
  Adverse event: Cardiac failure: 0
  Adverse event: Chills: 0
  Adverse event: Confusional state: 0
  Adverse event: Constipation: 4
  Adverse event: Cough: 0
  Adverse event: Dehydration: 1
  Adverse event: Dermatitis acneiform: 0
  Adverse event: Diabetes mellitus non-insulin-dependent: 0
  Adverse event: Diarrhea: 1
  Adverse event: Dizziness: 0
  Adverse event: Dry skin: 1
  Adverse event: Dyspepsia: 0
  Adverse event: Dyspnoea: 0
  Adverse event: Ear and labyrinth disorders: 1
  Adverse event: Epistaxis: 1
  Adverse event: Eructation: 0
  Adverse event: Fatigue: 4
  Adverse event: Febrile neutropenia: 0
  Adverse event: Folliculitis: 0
  Adverse event: Gastrointestinal disorders: 6
  Adverse event: General disorders and administration site conditions: 6
  Adverse event: General physical health deterioration: 0
  Adverse event: Haematocrit decreased: 1
  Adverse event: Headache: 1
  Adverse event: Hemorrhoids: 0
  Adverse event: Hepatobiliary disorders: 0
  Adverse event: Hiccups: 0
  Adverse event: Hyperbilirubinaemia: 0
  Adverse event: Hypersensitivity: 1
  Adverse event: Hypertension: 0
  Adverse event: Hypoalbuminaemia: 0
  Adverse event: Hypocalcaemia: 0
  Adverse event: Hypokalaemia: 0
  Adverse event: Hypomagnesaemia: 0
  Adverse event: Hyponatraemia: 0
  Adverse event: Hypophosphataemia: 0
  Adverse event: Immune system disorders: 1
  Adverse event: Insomnia: 1
  Adverse event: Investigations: 4
  Adverse event: Leukocytosis: 1
  Adverse event: Leukopenia: 2
  Adverse event: Lung abscess: 0
  Adverse event: Lymphopenia: 0
  Adverse event: Metabolism and nutrition disorders: 3
  Adverse event: Mucosal inflammation: 0
  Adverse event: Musculoskeletal and connective tissue disorders: 2
  Adverse event: Nausea: 2
  Adverse event: Neoplasms benign, malignant and unspecified (incl cysts and polyps): 0
  Adverse event: Nervous system disorders: 2
  Adverse event: Neuropathy peripheral: 0
  Adverse event: Neutropenia: 3
  Adverse event: Oedema: 1
  Adverse event: Oedema peripheral: 0
  Adverse event: Pain: 0
  Adverse event: Pain in extremity: 1
  Adverse event: Paraesthesia: 1
  Adverse event: Peripheral motor neuropathy: 0
  Adverse event: Peripheral sensory neuropathy: 0
  Adverse event: Platelet count decreased: 0
  Adverse event: Psychiatric disorders: 1
  Adverse event: Pyrexia: 2
  Adverse event: Rash: 0
  Adverse event: Renal and urinary disorders: 0
  Adverse event: Respiratory failure: 0
  Adverse event: Respiratory, thoracic and mediastinal disorders: 1
  Adverse event: Skin and subcutaneous tissue disorders: 3
  Adverse event: Stomatitis: 0
  Adverse event: Tachycardia: 0
  Adverse event: Thrombocythaemia: 0
  Adverse event: Thrombocytopenia: 2
  Adverse event: Tinnitus: 1
  Adverse event: Vascular disorders: 0
  Adverse event: Vomiting: 2
  Adverse event: Weight decreased: 0
  Serious adverse event: Abdominal pain: 0
  Serious adverse event: Acute myocardial infarction: 0
  Serious adverse event: Anorexia: 0
  Serious adverse event: Atrial fibrillation: 0
  Serious adverse event: Blood and lymphatic system disorders: 0
  Serious adverse event: Blood creatinine increased: 0
  Serious adverse event: Cardiac disorders: 0
  Serious adverse event: Cardiac failure: 0
  Serious adverse event: Dehydration: 0
  Serious adverse event: Dyspnoea: 0
  Serious adverse event: Fatigue: 0
  Serious adverse event: Febrile neutropenia: 0
  Serious adverse event: Gastrointestinal disorders: 0
  Serious adverse event: General disorders and administration site conditions: 0
  Serious adverse event: Hyponatraemia: 0
  Serious adverse event: Investigations: 0
  Serious adverse event: Lung abscess: 0
  Serious adverse event: Metabolism and nutrition disorders: 0
  Serious adverse event: Nausea: 0
  Serious adverse event: Neutropenia: 0
  Serious adverse event: Pain: 0
  Serious adverse event: Pyrexia: 0
  Serious adverse event: Respiratory failure: 0
  Serious adverse event: Respiratory, thoracic and mediastinal disorders: 0
  Serious adverse event: Thrombocythaemia: 0
  Serious adverse event: Thrombocytopenia: 0
  Serious adverse event: Vomiting: 0
  Total no. subjects WITH ADVERSE EVENTS: 9
  Total no. subjects WITH SERIOUS ADVERSE EVENTS: 0
1.5, 2.25, 3.0 μg/kg
  relation of adverse events to dose: did not appear to be related to increasing doses
human, in vivo
  relatedness of all other SAEs to the compound: unrelated
One subject
  relatedness of the SAE thrombocythemia to the compound: very likely

From US20090311344A1, “Dosing Regimen” (priority 2008, published 2009)
